According to article PMC9292215 (Clinical Pharmacology and Therapeutics, 2021):

Key:
[1] = target: T1, FAAH (Homo sapiens, UniProt O00519); settings: cited from earlier work
T1 sequence (O00519 1-579): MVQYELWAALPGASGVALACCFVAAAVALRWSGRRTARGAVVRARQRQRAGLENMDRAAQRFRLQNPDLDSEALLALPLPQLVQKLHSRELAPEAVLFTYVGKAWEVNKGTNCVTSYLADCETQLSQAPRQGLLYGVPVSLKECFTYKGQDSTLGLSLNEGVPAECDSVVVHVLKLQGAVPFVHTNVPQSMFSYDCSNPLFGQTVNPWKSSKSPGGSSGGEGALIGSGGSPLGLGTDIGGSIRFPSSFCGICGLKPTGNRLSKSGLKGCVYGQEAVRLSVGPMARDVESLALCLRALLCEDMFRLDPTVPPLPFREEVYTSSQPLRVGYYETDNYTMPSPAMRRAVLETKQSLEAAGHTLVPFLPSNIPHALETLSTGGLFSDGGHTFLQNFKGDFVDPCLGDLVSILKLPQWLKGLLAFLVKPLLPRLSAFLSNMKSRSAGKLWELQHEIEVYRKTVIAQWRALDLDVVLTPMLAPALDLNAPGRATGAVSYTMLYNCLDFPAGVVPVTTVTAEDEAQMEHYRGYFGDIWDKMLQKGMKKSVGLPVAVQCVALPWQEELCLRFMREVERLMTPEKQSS

[2] = Plasma pharmacokinetics of BIA 10-2474 and metabolites; type: in vivo, human
[3] = cited from earlier work
[4] = 20 mg BIA 10-2474 once daily, Day 10
[5] = after single dose 40 mg BIA 10-2474
[6] = after single dose 100 mg BIA 10-2474
[7] = repeated dose levels below 20 mg for 10 days
[8] = 20 mg BIA 10-2474 once daily, Day 1

Question: Which “tested dose as multiple of the dose required for complete FAAH inhibition” value [1] does the source give for O=C(Nc1cccnn1)N1CCC(=Cc2cccc(Oc3ccc(C(F)(F)F)cn3)c2)CC1 [PF-04457845] here?
Answer: 133 times

Question: And the FAAH inhibition ([1]; for 6 days or more)?
Answer: more than 90%

Question: For CN(C(=O)n1cnc(-c2cccnc2)c1)C1CCCCC1 [BIA 10-2445], which “AUC0–t of metabolite” value [2, 4] is on record?
Answer: 105 (64.7) ng⋅hour/mL

Question: What about the Cmax of metabolite [2, 4] of the same compound?
Answer: 8.27 (3.42) ng/mL

Question: What about the tmax of metabolite [2, 4] of the same compound?
Answer: 4.0 (4.0–12.0) hour

Question: What about the AUC0-t of metabolite [2, 5] of the same compound?
Answer: 51.3 (71.4) ng hour/mL

Question: And the Cmax of metabolite [2, 5]?
Answer: 4.66 (44.7) ng/mL

Question: And the tmax of metabolite [2, 5]?
Answer: 12.0 (3.0–24.0) hour

Question: And the AUC0-t of metabolite [2, 6]?
Answer: 303 (68.3) ng hour/mL

Question: What about the Cmax of metabolite [2, 6] of the same compound?
Answer: 11.4 (27.1) ng/mL

Question: And the tmax of metabolite [2, 6]?
Answer: 12.0 (3.0–24.0) hour

Question: What about the “plasma abundance of metabolite” value [2, 7] of the same compound?
Answer: undetectable

Question: And the “plasma abundance of metabolite” value ([2]; single dose levels below 40 mg)?
Answer: undetectable

Question: With CN(C(=O)n1cnc(-c2cccnc2)c1)[C@H]1CC[C@H](O)CC1 [BIA 10-2631, N-(trans-4-hydroxycyclohexyl)-N-methyl-4-pyridin-3-yl-1H-imidazole-1-carboxamide] as the compound, how does the “AUC0–t of metabolite” value [2, 4] read?
Answer: 203 (197) ng⋅hour/mL

Question: And the Cmax of metabolite [2, 4]?
Answer: 7.41 (3.9) ng/mL

Question: What about the tmax of metabolite [2, 4] of the same compound?
Answer: 4.0 (2.0–24.0) hour

Question: And the AUC0-t of metabolite [2, 6]?
Answer: 359 (36.3) ng hour/mL

Question: What about the Cmax of metabolite [2, 6] of the same compound?
Answer: 7.1 (30.9) ng/mL

Question: What about the tmax of metabolite [2, 6] of the same compound?
Answer: 18.0 (2.0–24.0) hour

Question: What about the “plasma abundance of metabolite” value [2, 7] of the same compound?
Answer: undetectable

Question: What about the “plasma abundance of metabolite” value ([2]; single dose levels below 40 mg) of the same compound?
Answer: undetectable

Question: Which “duration of FAAH inhibition” value [1] does the source give for O=C(Nc1cnccc1Cl)N1CCN(Cc2ccc3c(c2)OC(F)(F)O3)CC1 [JNJ-42165279] here?
Answer: > 24 h

Question: What about the “tested dose as multiple of the dose required for complete FAAH inhibition” value [1] of the same compound?
Answer: at least 10 times

Question: What about the half-life [3] of the same compound?
Answer: 8 to 14 h

Question: What does the source list for O=C(NC1CCCCC1)n1cnc(-c2ccc[n+]([O-])c2)c1 [BIA 10-2583]?
Answer: plasma abundance of metabolite [2, 7]: undetectable; plasma abundance of metabolite ([2]; single dose levels below 40 mg): undetectable

Question: Which “AUC0–t of metabolite” value [2, 8] does the source give for CN(C(=O)n1cnc(-c2ccc[n+]([O-])c2)c1)[C@H]1CC[C@H](O)CC1 [BIA 10-2639, N-(trans-4-hydroxycyclohexyl)-N-methyl-4-(1-oxidopyridin-3-yl)l-1H-imidazole-1-carboxamide] here?
Answer: 21.8 (6.8) ng⋅hour/mL

Question: What about the “AUC0–∞ of metabolite” value [2, 8] of the same compound?
Answer: 26.6 (8.5) ng⋅hour/mL

Question: And the Cmax of metabolite [2, 8]?
Answer: 4.1 (0.5) ng/mL

Question: What about the t1/2 of metabolite [2, 8] of the same compound?
Answer: 9.94 (1.79) h

Question: And the tmax of metabolite [2, 8]?
Answer: 1.0 (1.0–2.0) hour

Question: And the “AUC0–t of metabolite” value [2, 4]?
Answer: 47.3 (20.6) ng⋅hour/mL

Question: And the Cmax of metabolite [2, 4]?
Answer: 5.8 (1.7) ng/mL

Question: What about the tmax of metabolite [2, 4] of the same compound?
Answer: 1.0 (1.0–2.0) hour

Question: And the AUC0-t of metabolite [2, 5]?
Answer: 59.2 (30.6) ng hour/mL

Question: And the Cmax of metabolite [2, 5]?
Answer: 8.09 (30.7) ng/mL

Question: What about the t1/2 of metabolite [2, 5] of the same compound?
Answer: 9.78 (67.1) hour

Question: And the tmax of metabolite [2, 5]?
Answer: 2.0 (1.0–3.0) hour

Question: What about the AUC0-t of metabolite [2, 6] of the same compound?
Answer: 206 (40.7) ng hour/mL

Question: And the “AUC0-∞ of metabolite” value [2, 6]?
Answer: 271 (35.6) ng hour/mL

Question: And the Cmax of metabolite [2, 6]?
Answer: 19.6 (29.1) ng/mL

Question: What about the t1/2 of metabolite [2, 6] of the same compound?
Answer: 9.20 (15.2) hour

Question: And the tmax of metabolite [2, 6]?
Answer: 2.0 (1.0–3.0) hour

Question: What about the “plasma abundance of metabolite” value [2, 7] of the same compound?
Answer: undetectable

Question: And the “plasma abundance of metabolite” value ([2]; single dose levels below 40 mg)?
Answer: undetectable
